Data as given in patent publication US11564394B2, “Distorted gold (I)-phosphine complexes and methods for use as antifungal agents” (University of Kentucky Research Foundation, priority 2019, dated 2023).
Where two headings read alike, the source gives them in different places.

Experiments:
[1] = tested on: C. auris AR Bank # 0386 (strain V); assay: MIC determination (broth microdilution); assay type: cell-based, Candida auris; settings: Candidozyma auris, strain V = C. auris AR Bank # 0386, MIC-2
[2] = tested on: C. auris AR Bank # 0388 (strain VII); assay: MIC determination (broth microdilution); assay type: cell-based, Candida auris; settings: Candidozyma auris, strain VII = C. auris AR Bank # 0388, MIC-2
[3] = tested on: C. auris AR Bank # 0382 (strain II); assay: MIC determination (broth microdilution); assay type: cell-based, Candida auris; settings: Candidozyma auris, strain II = C. auris AR Bank # 0382, MIC-2
[4] = tested on: C. auris AR Bank # 0389 (strain VIII); assay: MIC determination (broth microdilution); assay type: cell-based, Candida auris; settings: Candidozyma auris, strain VIII = C. auris AR Bank # 0389, MIC-2
[5] = tested on: C. auris AR Bank # 0390 (strain L); assay: MIC determination (broth microdilution); assay type: cell-based, Candida auris; settings: strain L = C. auris AR Bank # 0390
[6] = tested on: C. auris AR Bank # 0381 (strain I); assay: MIC determination (broth microdilution); assay type: cell-based, Candida auris; settings: Candidozyma auris, strain I = C. auris AR Bank # 0381, MIC-2, optical density at 600 nm
[7] = tested on: C. auris AR Bank # 0385 (strain IV); assay: MIC determination (broth microdilution); assay type: cell-based, Candida auris; settings: Candidozyma auris, strain IV = C. auris AR Bank # 0385, MIC-2
[8] = tested on: C. auris AR Bank # 0387 (strain VI); assay: MIC determination (broth microdilution); assay type: cell-based, Candida auris; settings: Candidozyma auris, strain VI = C. auris AR Bank # 0387, MIC-2
[9] = tested on: C. auris AR Bank # 0384 (strain K); assay: MIC determination (broth microdilution); assay type: cell-based, Candida auris; settings: strain K = C. auris AR Bank # 0384
[10] = tested on: C. auris AR Bank # 0383 (strain III); assay: MIC determination (broth microdilution); assay type: cell-based, Candida auris; settings: Candidozyma auris, strain III = C. auris AR Bank # 0383, MIC-2
[11] = tested on: C. parapsilosis ATCC 22019 (strain J); assay: MIC determination (broth microdilution); assay type: cell-based; settings: strain J = C. parapsilosis ATCC 22019; MIC-0; 48 h; listed as printed beside letter K
[12] = tested on: F. graminearum 053 (strain T); assay type: cell-based, Fusarium graminearum; settings: strain T = F. graminearum 053; MIC-0; room temperature, 5 days
[13] = tested on: C. neoformans CN3 (strain P); assay: MIC determination (broth microdilution); assay type: cell-based, Cryptococcus neoformans; settings: MIC-0, 72 h at 35° C.
[14] = tested on: C. neoformans CN1 (strain N); assay: MIC determination (broth microdilution); assay type: cell-based, Cryptococcus neoformans; settings: MIC-0, 72 h at 35° C.
[15] = tested on: C. albicans ATCC MYA-2876(S) (strain E); assay: MIC determination (broth microdilution); assay type: cell-based, Candida albicans; settings: strain E = C. albicans ATCC MYA-2876(S); MIC-0; 48 h; listed as printed beside letter F
[16] = tested on: C. krusei ATCC 6258 (strain I); assay: MIC determination (broth microdilution); assay type: cell-based; settings: strain I = C. krusei ATCC 6258; MIC-0; 48 h; listed as split over r16 and r17 (r17 printed beside letter J)
[17] = tested on: C. albicans ATCC 90819(R) (strain G); assay type: cell-based, Candida albicans; settings: strain G = C. albicans ATCC 90819(R); MIC-0; 48 h; listed as printed without letter, below G
[18] = tested on: fungal strains (Candida spp., Cryptococcus spp., Aspergillus spp., Fusarium spp.); assay: MIC determination, summary statements over the strain panel; assay type: cell-based
[19] = tested on: A. nidulans ATCC 38163 (strain Q); assay: MIC determination (broth microdilution); assay type: cell-based, Aspergillus nidulans; settings: strain Q = A. nidulans ATCC 38163; MIC-0; 72 h at 35° C.
[20] = tested on: C. neoformans ATCC MYA-85 (strain M); assay: MIC determination (broth microdilution); assay type: cell-based, Cryptococcus neoformans; settings: strain M = C. neoformans ATCC MYA-85; MIC-0; 72 h at 35° C.
[21] = tested on: C. albicans ATCC MYA-1003(R) (strain A); assay type: cell-based, Candida albicans; settings: strain A = C. albicans ATCC MYA-1003(R); MIC-0; 48 h at 35° C.
[22] = tested on: C. albicans ATCC MYA-1237(R) (strain C); assay type: cell-based, Candida albicans; settings: strain C = C. albicans ATCC MYA-1237(R); MIC-0; 48 h; listed as printed beside letter D
[23] = tested on: C. glabrata ATCC 2001 (strain H); assay: MIC determination (broth microdilution); assay type: cell-based, Candida glabrata; settings: strain H = C. glabrata ATCC 2001; MIC-0; 48 h at 35° C.
[24] = tested on: C. albicans ATCC 10231(R) (strain B); assay type: cell-based, Candida albicans
[25] = tested on: C. albicans ATCC MYA-2310(S) (strain D); assay: MIC determination (broth microdilution); assay type: cell-based, Candida albicans; settings: strain D = C. albicans ATCC MYA-2310(S); MIC-0; 48 h; listed as printed beside letter E
[26] = tested on: C. neoformans CN2 (strain O); assay: MIC determination (broth microdilution); assay type: cell-based, Cryptococcus neoformans; settings: MIC-0, 72 h at 35° C.
[27] = tested on: A. flavus ATCC MYA-3631 (strain S); assay: MIC determination (broth microdilution); assay type: cell-based, Aspergillus flavus; settings: strain S = A. flavus ATCC MYA-3631; MIC-0; 72 h at 35° C.
[28] = tested on: C. albicans ATCC 64124(R) (strain F); assay type: cell-based, Candida albicans; settings: strain F = C. albicans ATCC 64124(R); MIC-0; 48 h; listed as printed beside letter G
[29] = tested on: A. terreus ATCC MYA-3633 (strain R); assay type: cell-based, Aspergillus terreus; settings: strain R = A. terreus ATCC MYA-3633; MIC-0; 72 h at 35° C.
[30] = read-out: MIC (MIC-2 for azoles)
[31] = read-out: MIC (MIC-2 for azoles, in parentheses)
[32] = Candidozyma auris, MIC-2, read-out: MIC (MIC-2 for azoles)
[33] = Candidozyma auris, MIC-2, read-out: MIC (MIC-2 for azoles, in parentheses)
[34] = MIC-0, 48 h (CAS read at 24 h), Table 1 row printed without letter, below L, also in Table 2
[35] = MIC-0, 48 h (CAS read at 24 h), Table 1, also in Table 2

OC(Cn1cncn1)(Cn1cncn1)c1ccc(F)cc1F [FLC, fluconazole]
MIC [1, 30]: > 62.5 µg/mL
MIC [1, 31]: > 204 µM
MIC [2, 30]: > 62.5 µg/mL
MIC [2, 31]: > 204 µM
MIC [3, 30]: 0.49 µg/mL
MIC [3, 31]: 1.6 µM
MIC [4, 30]: > 62.5 µg/mL
MIC [4, 31]: > 204 µM
MIC [5, 32]: > 62.5 µg/mL
MIC [5, 33]: > 204 µM
MIC [6, 30]: 0.49 µg/mL
MIC [6, 31]: 1.6 µM
MIC [7, 30]: > 62.5 µg/mL
MIC [7, 31]: > 204 µM
MIC [8, 30]: 0.98 µg/mL
MIC [8, 31]: 3.2 µM
MIC [9, 32]: 31.3 µg/mL
MIC [9, 33]: 102 µM

C[C@@H](c1ncncc1F)[C@](O)(Cn1cncn1)c1ccc(F)cc1F [VRC, voriconazole]
MIC [1, 30]: 3.9 µg/mL
MIC [1, 31]: 11.2 µM
MIC [2, 30]: 0.49 µg/mL
MIC [2, 31]: 1.4 µM
MIC [3, 30]: 0.06 µg/mL
MIC [3, 31]: 0.2 µM
MIC [4, 30]: 0.98 µg/mL
MIC [4, 31]: 2.8 µM
MIC [5, 32]: 0.49 µg/mL
MIC [5, 33]: 1.4 µM
MIC [6, 30]: 0.06 µg/mL
MIC [6, 31]: 0.2 µM
MIC [7, 30]: 3.9 µg/mL
MIC [7, 31]: 11.2 µM
MIC [8, 30]: 0.06 µg/mL
MIC [8, 31]: 0.2 µM
MIC [9, 32]: 0.24 µg/mL
MIC [9, 33]: 0.7 µM
MIC [10, 30]: 1.95 µg/mL
MIC [10, 31]: 5.6 µM

CC1CCC(C)[P+]1([Au-][Cl])c1ccccc1[P+]1([Au-][Cl])C(C)CCC1C [Compound 3, [1,2-bis[(2S,5S)-2,5-dimethylphospholano]benzene]digold(1)]
MIC [11]: > 31.3 µg/mL
MIC (in parentheses) [11]: > 40.6 µM
MIC [12]: > 31.3 µg/mL
MIC (in parentheses) [12]: > 40.6 µM
MIC [13]: > 31.3 µg/mL
MIC (in parentheses) [13]: > 40.6 µM
MIC [14]: > 31.3 µg/mL
MIC (in parentheses) [14]: > 40.6 µM
MIC [15]: 31.3 µg/mL
MIC (in parentheses) [15]: 40.6 µM
MIC [16]: > 31.3 µg/mL
MIC (in parentheses) [16]: > 40.6 µM
MIC [5, 34]: > 31.3 µg/mL
MIC (in parentheses) [5, 34]: > 40.6 µM
MIC [17]: 31.3 µg/mL
MIC (in parentheses) [17]: 40.6 µM
antifungal activity ([18]; all fungal strains tested, except C. neoformans (strain M)): completely inactive
overall assessment as antifungals ([18]; panel of twenty fungal strains (Table 1)): poor antifungals
MIC [19]: > 31.3 µg/mL
MIC (in parentheses) [19]: > 40.6 µM
MIC [20]: 1.95 µg/mL
MIC (in parentheses) [20]: 2.5 µM
MIC [21]: 31.3 µg/mL
MIC (in parentheses) [21]: 40.6 µM
MIC [9, 35]: > 31.3 µg/mL
MIC (in parentheses) [9, 35]: > 40.6 µM
MIC [22]: > 31.3 µg/mL
MIC (in parentheses) [22]: 40.6 µM
MIC [23]: > 31.3 µg/mL
MIC (in parentheses) [23]: > 40.6 µM
MIC [24]: >31.3 (40.6) μg/mL
MIC (in parentheses) [24]: >31.3 (40.6) μM
MIC [25]: 31.3 µg/mL
MIC (in parentheses) [25]: 40.6 µM
MIC [26]: 31.3 µg/mL
MIC (in parentheses) [26]: 40.6 µM
MIC [27]: > 31.3 µg/mL
MIC (in parentheses) [27]: > 40.6 µM
MIC [28]: 31.3 µg/mL
MIC (in parentheses) [28]: 40.6 µM
MIC [29]: > 31.3 µg/mL
MIC (in parentheses) [29]: > 40.6 µM
